{
  "source": "patent US8352031B2",
  "about": "“Protein activity modification” (Impulse Dynamics NV, priority 2004, dated 2013)",
  "key": {"[1]": {"test_system": "dogs with intracoronary microembolization-induced chronic HF", "assay": "3 months therapy with beta-blocker alone, beta-blocker + CCM or no therapy: LV EDV, ESV, EF", "type": "in vivo, dog", "protocol": "In a set of experiments, dogs with intracoronary microembolization-induced chronic HF (LV EF 30%-40%) were randomized to 3 months therapy with either BB (beta-blockers) alone (extended release metoprolol succinate, 100 mg once daily), extended release metoprolol succinate (100 mg, once daily) combined with CCM therapy, or to no therapy at all (Control). LV end-diastolic volume (EDV), end-systolic volume (ESV) and EF were measured before randomization (PRE) and after 3 months of therapy (POST). To determine “treatment effect”, the change A between PRE and POST therapy for each group was compared among the 3 study groups."}, "[2]": {"test_system": "human malignant glioma cell lines", "conditions": "advertised; cited from earlier work"}, "[3]": {"test_system": "phospholamban threonin-17", "assay": "Phosphorylation of PLB at threonine-17 in failed LV tissue homogenate with/without PK inhibitor and CCM signal (Western blot)", "type": "biochemical, dog", "conditions": "for P-PLB threonin-17: single samples; for P-PLB threonin-17, Av: average", "protocol": "(§1) The tissue homogenate was prepared in the following manner. […] The homogenate was then filtered through 4 layers of cheese cloth. The resulting homogenate was stored in ice and its protein concentration was determined by the Lowry method.\n(§2) The CCM signals were delivered to the homogenate as follows. The homogenate was diluted 2 fold in homogenate buffer and subsequently aliquotted 3 ml each in assay tubes. Assay tubes were divided into 2 sets (Set A and Set B), each subset consisting of […]. CCM signals were delivered for 10″, 30″, 1′, 5′, 30′, and 60′ in one of the sets, while the other set served as time control. The reaction was stopped by adding concentrated SDS. Protein assay on all the samples were performed by Lowry method.\n(§3) Additional experiments of tissue homogenate were carried out in the presence and absence of protein kinese inhibitors. The homogenate was the same as above, from dogs with heart failure. […] CAS 62996-74-1.\nThe following tables summarize the experimental results for theronin-17: […]"}, "platelet aggregation": {"test_system": "platelet aggregation", "conditions": "advertised; cited from earlier work"}, "normal cells": {"test_system": "normal cells", "conditions": "advertised; cited from earlier work"}, "phospholamban serine-16": {"test_system": "phospholamban serine-16", "assay": "Phosphorylation of PLB at serine-16 in failed LV tissue homogenate with/without PK inhibitor and CCM signal (Western blot)", "type": "biochemical, dog", "conditions": "for P-PLB serine-16: single samples", "protocol": "as §1, §2, §3"}, "[4]": {"conditions": "Control + PK Inhibitor, no CCM, 10 sec"}, "[5]": {"conditions": "Control + PK Inhibitor, no CCM, 20 sec"}, "[6]": {"conditions": "Control + PK Inhibitor, no CCM, 30 sec"}, "[7]": {"conditions": "PK Inhibitor + CCM delivered for 60 sec"}},
  "note": "Several values for one entry are separate records, joined by “and”; a condition that tells them apart may be missing. Equal entries are not always repeated.",
  "data": [
    {"smiles": "COCCc1ccc(OCC(O)CNC(C)C)cc1", "note": "(stereo not drawn) [BB, metoprolol succinate]", "values": [
      {"measurement": "LV EDV", "setting": "[1]; BB alone", "result": "prevented the increase in EDV"},
      {"measurement": "LV EF", "setting": "[1]; BB alone", "result": "significantly increased EF"},
      {"measurement": "LV ESV", "setting": "[1]; BB alone", "result": "significantly reduced ESV"},
      {"measurement": "LV EDV", "setting": "[1]; BB combined with CCM", "result": "prevented the increase in EDV"},
      {"measurement": "LV EF", "setting": "[1]; BB combined with CCM", "result": "significantly increased EF"},
      {"measurement": "LV ESV", "setting": "[1]; BB combined with CCM", "result": "significantly reduced ESV"},
      {"measurement": "Treatment effect (Δ) LV EF, PRE to POST", "setting": "[1]; BB combined with CCM therapy", "result": "12±1", "unit": "%"}
    ]},
    {"smiles": "CN[C@@H]1C[C@H]2O[C@@](C)([C@@H]1OC)n1c3ccccc3c3c4c(c5c6ccccc6n2c5c31)C(=O)NC4", "note": "[STAUROSPORIN]", "values": [
      {"measurement": "apoptosis", "setting": "[2]", "result": "Induces apoptosis"},
      {"measurement": "P-PLB threonin-17", "setting": "[3]; [4]", "result": "8.9 and 9.5"},
      {"measurement": "P-PLB threonin-17, Av", "setting": "[3]; [5]", "result": 9.0},
      {"measurement": "P-PLB threonin-17", "setting": "[3]; [6]", "result": 8.2},
      {"measurement": "response of threonin-17 phosphorylation to CCM in presence of kinese inhibitor", "setting": "[3]; HF dog tissue homogenate", "result": "reduced and delayed response"},
      {"measurement": "P-PLB threonin-17", "setting": "[3]; PK Inhibitor + CCM delivered for 10 sec", "result": "14.6 and 9.9 and 8.7"},
      {"measurement": "P-PLB threonin-17", "setting": "[3]; PK Inhibitor + CCM delivered for 20 sec", "result": "8.3 and 15.0"},
      {"measurement": "P-PLB threonin-17, Av", "setting": "[3]; [7]", "result": 15.0},
      {"measurement": "platelet aggregation induced by collagen or ADP", "setting": "platelet aggregation", "result": "inhibits platelet aggregation"},
      {"measurement": "cell cycle arrest", "setting": "normal cells", "result": "Arrests normal cells at the G1 checkpoint"},
      {"measurement": "P-PLB serine-16", "setting": "phospholamban serine-16; [4]", "result": "8.0 and 9.0"},
      {"measurement": "P-PLB serine-16", "setting": "phospholamban serine-16; [5]", "result": "12.2 and 14.0"},
      {"measurement": "P-PLB serine-16, Av", "setting": "phospholamban serine-16; Control + PK Inhibitor, no CCM, 30 sec, average", "result": 9.4},
      {"measurement": "P-PLB serine-16", "setting": "phospholamban serine-16; [6]", "result": "6.8 and 9.7"},
      {"measurement": "response of serine-16 phosphorylation to CCM in presence of kinese inhibitor", "setting": "phospholamban serine-16; HF dog tissue homogenate", "result": "responded close to usual"},
      {"measurement": "P-PLB serine-16", "setting": "phospholamban serine-16; PK Inhibitor + CCM delivered for 30 sec", "result": "14.3 and 13.0"},
      {"measurement": "P-PLB serine-16", "setting": "phospholamban serine-16; [7]", "result": 22.7}
    ]}
  ]
}
